Patent publication US10149911B2, “Pharmaceutical composition containing hydroxamic acid derivative or salt thereof” (TOYAMA CHEMICAL CO., LTD., priority 2014, dated 2018)

How the values were obtained:
[1] = Solubility test in 10% CD or CD derivative solution; format: physicochemical; details: thermodynamic from solid, room temperature
Procedure: To 5 mL of a 10% CD or CD derivative solution, about 100 mg of Compound A monohydrate was added, and stirred at room temperature for 24 hours. To the solutions in which αCD, HPαCD, DMβCD and methyl-β-cyclodextrin were used, about 100 mg of Compound A monohydrate was added after 6 hours. After centrifugation (3000 rpm, 10 minutes), the supernatant was filtered with a filter, and the solubility was measured by the HPLC method.

[2] = tested on: Pseudomonas aeruginosa clinical isolate (S-2838 strain); experiment: Mouse model with pulmonary infection by multidrug-resistant Pseudomonas aeruginosa; format: in vivo; details: cyclophosphamide-treated male ICR mice, S-2838 strain intranasal, 25 mg/kg
Procedure: The mice used were male ICR SPF mice (4.5 weeks old at the time of infection: 5 individuals per group). In order to achieve a transient compromised state, cyclophosphamide was intraperitoneally administered at a dose of 200 mg/kg to each mouse 4 days before injection.
(§1) To prepare a bacterial inoculum solution, a Pseudomonas aeruginosa clinical isolate (S-2838 strain) was suspended in sterile saline.
Infection was induced by the inoculation of 0.05 mL of the inoculum solution (approximately 10^5 CFU/mouse) to each mouse intranasally. […] The numbers of bacterial colonies of the next day of the infection in the lungs were recorded, and an average thereof was calculated.

[3] = tested on: multidrug-resistant Pseudomonas aeruginosa clinical isolate (S-2838 strain); experiment: Defense against mouse systemic infection using multidrug-resistant Pseudomonas aeruginosa; format: in vivo; details: male ICR mice, S-2838 strain i.p., 25 mg/kg
Procedure: The mice used were male ICR SPF mice (4 weeks old: 5 individuals per group).
To prepare a bacterial inoculum solution, a multidrug-resistant Pseudomonas aeruginosa clinical isolate (S-2838 strain) cultured overnight at 37° C. on a Mueller-Hinton agar plate was cultured for 5 hours in a cation-adjusted Mueller-Hinton medium and then diluted 10-fold with a 10% mucin/phosphate buffer solution to prepare the inoculum solution.
Infection was induced by the intraperitoneal inoculation of 0.5 mL of the inoculum solution (approximately 10^6 CFU/mouse) to each mouse. […] Three days after the infection, the number of survivors was recorded.

[4] = tested on: Pseudomonas aeruginosa clinical isolate (S-2838 strain); experiment: Mouse model with urinary tract infection by multidrug-resistant Pseudomonas aeruginosa; format: in vivo; details: female ICR mice, S-2838 strain via urethra, 12.5 mg/kg
Procedure: The mice used were female ICR SPF mice (5 weeks old: 5 individuals per group).
as §1
Infection was induced by the inoculation of 0.2 mL of the inoculum solution (approximately 10^3 CFU/mouse) through the urethra of each mouse. […] The numbers of bacterial colonies of the next day of the infection in the kidneys were recorded, and an average thereof was calculated.

| Structure (SMILES) | solubility at 24 h ([1]; 10% DMβCD solution, aqueous with cosolvent or surfactant or cyclodextrin, 10% DM β CD solution) | solubility at 24 h ([1]; 10% HPαCD solution, aqueous with cosolvent or surfactant or cyclodextrin, 10% HP α CD solution) | solubility at 24 h ([1]; 10% HPβCD solution, aqueous with cosolvent or surfactant or cyclodextrin, 10% HP β CD solution) | solubility at 24 h ([1]; 10% HPγCD solution, aqueous with cosolvent or surfactant or cyclodextrin, 10% HP γ CD solution) | solubility at 24 h ([1]; 10% SBEβCD solution, aqueous with cosolvent or surfactant or cyclodextrin, 10% SBE β CD solution) | solubility at 24 h ([1]; 10% αCD solution, aqueous with cosolvent or surfactant or cyclodextrin, 10% α CD solution) | solubility at 24 h ([1]; 10% βCD solution, aqueous with cosolvent or surfactant or cyclodextrin, 10% β CD solution) | solubility at 24 h ([1]; 10% γCD solution, aqueous with cosolvent or surfactant or cyclodextrin, 10% γ CD solution) | solubility at 24 h ([1]; aqueous with cosolvent or surfactant or cyclodextrin, 10% 2,3,6-Tri-O-methyl-β-cyclodextrin solution) | solubility at 24 h ([1]; aqueous with cosolvent or surfactant or cyclodextrin, 10% 6-O-α-maltosyl-β-cyclodextrin solution) | solubility at 24 h ([1]; aqueous with cosolvent or surfactant or cyclodextrin, 10% Hydroxyethyl-β-cyclodextrin solution) | solubility at 24 h ([1]; aqueous with cosolvent or surfactant or cyclodextrin, 10% Methyl-β-cyclodextrin solution) | solubility at 24 h ([1]; water, None (no CD or CD derivative)) | decrease in the intrapulmonary viable cell count compared to the control group [2] | mice surviving 3 days after the bacterial inoculation [3] | decrease in the intrarenal viable cell count compared to the control group [4] |
| --- | --- | --- | --- | --- | --- | --- | --- | --- | --- | --- | --- | --- | --- | --- | --- | --- |
| CNC(=O)[C@@](C)(C(=O)NO)N(C)C(=O)c1ccc(C#Cc2ccc([C@H](O)CO)cc2)cc1 [Compound A monohydrate, (2S)-2-((4-((4-((1S)-1,2-dihydroxyethyl)phenyl)ethynyl)benzoyl)(methyl)amino)-N-hydroxy-N′,2-dimethylmalonamide] | 16.6 mg/mL | 25.7 mg/mL | 11.6 mg/mL | 8.8 mg/mL | 8.9 mg/mL | 30.2 mg/mL | 5.9 mg/mL | 14.4 mg/mL | 4.7 mg/mL | 10 mg/mL | 11.9 mg/mL | 17.5 mg/mL | 0.2 mg/mL |  |  |  |
| CNC(=O)[C@@](C)(C(=O)NO)N(C)C(=O)c1ccc(C#Cc2ccc([C@H](O)CO)cc2)cc1 [Compound A, (2S)-2-((4-((4-((1S)-1,2-dihydroxyethyl)phenyl)ethynyl)benzoyl)(methyl)amino)-N-hydroxy-N′,2-dimethylmalonamide] |  |  |  |  |  |  |  |  |  |  |  |  |  | ≥ 2 log CFU/lung | ≥ 60% | ≥ 2 log CFU/kidney |
